Laboratory results as given in PMC10313368 (The Journal of Clinical Investigation, 2023).

Assays:
[1] = test system: HUVECs; assay: mRNA angiogenesis array (TaqMan Array qPCR) in HUVECs; type: cell-based, human; set-up: ANG,RNASE4, array raw value (Figure 8B, well A10) / GAPDH, array raw value (Figure 8B, well A2) / EDIL3, array raw value (Figure 8B, well B2) / FGF1, array raw value (Figure 8B, well B4) / TIMP2, array raw value (Figure 8B, well E10) / SEMA3F, array raw value (Figure 8B, well E6) / CEACAM1, array raw value (Figure 8B, well F2) / LYVE1, array raw value (Figure 8B, well F6): scale not given here
Experimental: Angiogenesis array. Total RNA was isolated from MIO-MI cells (8 hours) and HUVECs (16 […]
cDNA was prepared with QuantiTect® Reverse Transcription Kit (Qiagen, Cat# 205311). RT-qPCR assay was performed with pre-configured TaqMan Array 96-Well FAST Plate for human angiogenic gene expression (Applied Biosystems, Inc) following the manufacture’s protocol. Each plate contains pre-defined genes including 18S, GAPDH and HPRT1 endogenous controls.
TaqMan Array plates were prepared by loading on each well 5 μl of cDNA sample (30 ng) with nuclease-free water and 5 μl of TaqMan™ Fast Advanced Master Mix (Applied Biosystem, Cat# […]
4444554). The reaction was performed using the QuantStudio™ 3 Flex Real‐Time PCR System as follows: 2 minutes at 50°C (stage 1); 10 minutes at 95°C (stage 2); 15 seconds at 95°C and 1 minutes at 60°C for 40 cycles (stage 3). The data were analyzed by using HPRT1 as endogenous […]
The clustering heatmaps were produced with “pheatmap” library in R with scale = row and clustering method = complete.
HUVEC cells, Euclidean distance was used to quantify the difference in qPCR screening. The Euclidean distance was calculated using “dist” function from R’s default stat library that measures the distance between 2 vectors (i.e., total qPCR expression values in control and treatment). In […]

[2] = test system: differentially expressed genes (DEGs) in OIR mice; assay: Bulk RNA-Seq of neurosensory retina of OIR mice; type: in vivo, mouse
Text: Bulk RNAseq. P17 mouse pups from non-OIR (control), OIR injected with DMSO (vehicle) at P12 […]
enucleated, and their retinas separated from the RPE/choroid. Total RNA was isolated using miRNeasy mini kit (QIAGEN). RNA was quantified using Nanodrop (ND-1000 spectrophotometer; Thermo Scientific). The RNA samples were sequenced by Novogene […]
Raw data (fastq files), data quality control, and genome alignment were generated by Novogene company. DESeq2 (6) was used for differentially expressed genes (DEG) analysis. Genes with adjusted P < 0.05 and log2 fold change > 1 were identified as DEGs. Normalized counts were used to produce clustering heatmaps and “complete” was the default method in the clustering analysis.
Gene Ontology (GO) analysis (biological process) was done using DAVID Bioinformatics Resources (7, 8). FDR < 0.05 was used as the threshold for enriched biological process. […]

[3] = OIR mice P17, single intraocular 32-134D 70 ng/μL at P12

`Brc1ccc2c(-c3csc(-c4c[nH]c5c(Br)cccc45)n3)c[nH]c2c1` [32-134D, 4-(6-bromo-1H-indol-3-yl)-2-(7-bromo-1H-indol-3-yl)thiazole] was tested, and the “PDGFB, array raw value (Figure 8B, well C1)” value ([1]; HUVEC, 1%O2+32-134D) was 28.0672, the “PECAM1, array raw value (Figure 8B, well F5)” value ([1]; HUVEC, 1%O2+32-134D) was 23.24 and the “PF4, array raw value (Figure 8B, well D8)” value ([1]; HUVEC, 1%O2+32-134D) was 38.4479. The “PLG, array raw value (Figure 8B, well A6)” value ([1]; HUVEC, 1%O2+32-134D) was 36.8052, the “PROX1, array raw value (Figure 8B, well H12)” value ([1]; HUVEC, 1%O2+32-134D) was 31.6234 and the “PTN, array raw value (Figure 8B, well C2)” value ([1]; HUVEC, 1%O2+32-134D) was 36.9532. For the same compound, the “S1PR1, array raw value (Figure 8B, well H11)” value ([1]; HUVEC, 1%O2+32-134D) was 25.2945, the “SEMA3F, array raw value (Figure 8B, well E6)” value ([1]; HUVEC, 1%O2+32-134D) was 31.8531 and the “SERPINB5, array raw value (Figure 8B, well E4)” value ([1]; HUVEC, 1%O2+32-134D) was 36.9759. The “SERPINC1, array raw value (Figure 8B, well A7)” value ([1]; HUVEC, 1%O2+32-134D) was 34.8884, the “SERPINF1, array raw value (Figure 8B, well D7)” value ([1]; HUVEC, 1%O2+32-134D) was 37.5691 and the “TEK, array raw value (Figure 8B, well E7)” value ([1]; HUVEC, 1%O2+32-134D) was 27.2772. For the same compound, the “TGFA, array raw value (Figure 8B, well C4)” value ([1]; HUVEC, 1%O2+32-134D) was 29.7382, the “TGFB1, array raw value (Figure 8B, well C5)” value ([1]; HUVEC, 1%O2+32-134D) was 24.01 and the “THBS1, array raw value (Figure 8B, well C12)” value ([1]; HUVEC, 1%O2+32-134D) was 23.1291. For the same compound, the “TIE1, array raw value (Figure 8B, well E8)” value ([1]; HUVEC, 1%O2+32-134D) was 30.7653, the “TIMP2, array raw value (Figure 8B, well E10)” value ([1]; HUVEC, 1%O2+32-134D) was 25.4299 and the “TIMP3, array raw value (Figure 8B, well E11)” value ([1]; HUVEC, 1%O2+32-134D) was 25.8838. For the same compound, the “TNFSF15, array raw value (Figure 8B, well D1)” value ([1]; HUVEC, 1%O2+32-134D) was 25.7168, the “TNMD, array raw value (Figure 8B, well E9)” value ([1]; HUVEC, 1%O2+32-134D) was 37.1045 and the “TYMP, array raw value (Figure 8B, well B12)” value ([1]; HUVEC, 1%O2+32-134D) was 39.1978. For the same compound, the “VASH1, array raw value (Figure 8B, well D9)” value ([1]; HUVEC, 1%O2+32-134D) was 30.8647, the “VEGFA, array raw value (Figure 8B, well C7)” value ([1]; HUVEC, 1%O2+32-134D) was 30.4927 and the “VEGFB, array raw value (Figure 8B, well C8)” value ([1]; HUVEC, 1%O2+32-134D) was 27.5522. For the same compound, the “VEGFC, array raw value (Figure 8B, well C9)” value ([1]; HUVEC, 1%O2+32-134D) was 27.3225, the “ANGPTL4 mRNA (angiogenesis array, Figure 8C)” value ([1]; HUVEC, Hy+32-134D, Normal = 1) was 35.2355 and the “COL4A1 mRNA (angiogenesis array, Figure 8C)” value ([1]; HUVEC, Hy+32-134D, Normal = 1) was 3.543. For the same compound, the “COL4A2 mRNA (angiogenesis array, Figure 8C)” value ([1]; HUVEC, Hy+32-134D, Normal = 1) was 2.168, the “CTGF mRNA (angiogenesis array, Figure 8C)” value ([1]; HUVEC, Hy+32-134D, Normal = 1) was 3.12 and the “EPHB2 mRNA (angiogenesis array, Figure 8C)” value ([1]; HUVEC, Hy+32-134D, Normal = 1) was 2.119. The “HSPG2 mRNA (angiogenesis array, Figure 8C)” value ([1]; HUVEC, Hy+32-134D, Normal = 1) was 1.339, the “ITGB3 mRNA (angiogenesis array, Figure 8C)” value ([1]; HUVEC, Hy+32-134D, Normal = 1) was 3.6621 and the “MMP2 mRNA (angiogenesis array, Figure 8C)” value ([1]; HUVEC, Hy+32-134D, Normal = 1) was 3.052. For the same compound, the “PDGFB mRNA (angiogenesis array, Figure 8C)” value ([1]; HUVEC, Hy+32-134D, Normal = 1) was 2.63, the “PROX1 mRNA (angiogenesis array, Figure 8C)” value ([1]; HUVEC, Hy+32-134D, Normal = 1) was 2.021 and the “TGFA mRNA (angiogenesis array, Figure 8C)” value ([1]; HUVEC, Hy+32-134D, Normal = 1) was 2.2277. The “TGFB1 mRNA (angiogenesis array, Figure 8C)” value ([1]; HUVEC, Hy+32-134D, Normal = 1) was 1.578, the “TNMD mRNA (angiogenesis array, Figure 8C)” value ([1]; HUVEC, Hy+32-134D, Normal = 1) was 1.388 and the “VEGFA mRNA (angiogenesis array, Figure 8C)” value ([1]; HUVEC, Hy+32-134D, Normal = 1) was 4.067. For the same compound, the “VEGFC mRNA (angiogenesis array, Figure 8C)” value ([1]; HUVEC, Hy+32-134D, Normal = 1) was 3.879, the “reduction in the Euclidean distance between control and hypoxic cell angiogenic gene expression” value ([1]; HUVECs, from 209 to 35) was 83% and the “reduction in downregulated DEGs” value [2, 3] was 93%. For the same compound, the “reduction in upregulated DEGs” value [2, 3] was 71%, the “upregulated DEGs compared with non-OIR (control) mice” value ([2]; OIR mice P17, single intraocular 32-134D 70 ng/μL at P12, 250 in untreated OIR) was 73 and the “downregulated DEGs compared with non-OIR (control) mice” value ([2]; OIR mice P17, single intraocular 32-134D 70 ng/μL at P12, 768 in untreated OIR) was 52. For the same compound, the “top 37 upregulated DEGs of 4 biological functions (inflammation, angiogenesis, hypoxia, vasculogenesis)” value ([2]; OIR mice, 32-134D intraocular) was “normalization”.
